Legend:
skin = test: Test for skin accumulated stimulus, HRIPT (Human repeated insult patch tests); format: in vivo; design: key to skin reactivity (ICDRG criteria): −: negative (no response); ±: doubtful or slight erythema, etc.; +: weak reaction (which is accompanied with no phlyctenule), erythema, papule; ++: severe reaction (which is accompanied with phlyctenule), erythema, papule, phlyctenule; +++: strong reaction, bullae reaction; conditions: for Number of examinees who exhibited ±, +, or ++ reactivity, 6th: 6th patch; for Number of examinees who exhibited ±, +, or ++ reactivity, 7th: 7th patch; for Number of examinees who exhibited ±, +, or ++ reactivity, 8th: 8th patch; for average reactivity: 9 patches over 3 weeks, 15 examinees, less than 3 is considered a stable composition; for Number of examinees who exhibited ±, +, or ++ reactivity, 9th: 9th patch; for Number of examinees who exhibited ±, +, or ++ reactivity, 1st: 1st patch; for Number of examinees who exhibited ±, +, or ++ reactivity, 2nd: 2nd patch; for Number of examinees who exhibited ±, +, or ++ reactivity, 3rd: 3rd patch; for Number of examinees who exhibited ±, +, or ++ reactivity, 4th: 4th patch; for Number of examinees who exhibited ±, +, or ++ reactivity, 5th: 5th patch
Experimental: HRIPT (Human repeated insult patch tests) was conducted in order to identify skin accumulated stimulus of quercetin3-O-[3-O″-(E)-p-coumaroyl][β-D-glucopyranosyl-(1→3)-O-α-L-rhamnopyranosyl-(1→6)-O-β-D-glucopyranoside] and quercetin3-O-[3-O″-(E)-p-coumaroyl][α-L-rhamnopyranosyl-(1→6)-O-β-D-glucopyranoside] and to calculate the concentration range that can be used in skin. Specifically, 15 healthy adult examinees were randomly selected, and test compositions in which the compounds were respectively comprised in an amount of 0.5 wt. %, 1 wt. %, and 3 wt. % (the compositions for skin, comprising an emulsifying agent, a stabilizer, purified water, etc. in addition to the compounds) were dropped in the amount of 20 μl per chamber (IQ chamber, Epitest Ltd, Finland), and patched on the right site of the upper back of the examinees, and then, after 24 hours, the patch was replaced with a new patch. A total of 9 patches were conducted, three times a week for total 3 weeks, in such manner, the skin reactions before and after patch were examined every time, and the skin reactions until 48 hours after removing the final patch were observed, and the average reactivity was observed. The skin reaction was determined according to the criteria of International Contact Dermatitis Research Group (ICDRG). In the above table, “New Material 31” refers to quercetin3-O-[3-O″-(E)-p-coumaroyl][β-D-glucopyranosyl-(1→3)-O-α-L-rhamnopyranosyl-(1→6)-O-β-D-glucopyranoside], and “New Material 32” refers to quercetin3-O-[3-O″-(E)-p-coumaroyl][α-L-rhamnopyranosyl-(1→6)-O-β-D-glucopyranoside].

IL-8 (Interleukin 8) = test: Test for inhibiting generation of IL-8 in H2O2-stimulated fibroblast (ELISA); format: cell-based
Experimental: (§1) Fibroblast (PromoCell, Germany) was inoculated in a 6-well culturing plate at a concentration of 1×10^5 cells, and cultured in a 5% CO2 incubator at 37° C. for 24 hours. The well was treated with H2O2 500 μM and stimulated for 24 hours, and then were treated with quercetin3-O-[3-O″-(E)-p-coumaroyl][β-D-glucopyranosyl-(1→3)-O-α-L-rhamnopyranosyl-(1→6)-O-β-D-glucopyranoside] (‘New Material 31’) and quercetin3-O-[3-O″-(E)-p-coumaroyl][α-L-rhamnopyranosyl-(1→6)-O-β-D-glucopyranoside]) (‘New Material 32’) at a concentration of 100 μg/ml, respectively, and reacted for 48 hours. After the reaction was finished, the culture medium was collected and the ELISA analysis was performed. Herein, α-bisabolol, which is the material typically used as an anti-inflammatory agent and abirritant, was used as a control. As PGE2, a kit of Assay Design® was used, and as IL-6 and IL-8, a kit of Endogen® was used, and the test was carried out according to the methods prescribed in the manuals of the respective companies. (‘31’ refers to New Material 31, and ‘32’ refers to New Material 32) Inhibition effect={1−(test sample−control)/(H2O2−control)}×100 <Equation 1>

PGE2 (Prostaglandin E2) = test: Test for inhibiting generation of PGE2 in H2O2-stimulated fibroblast (ELISA); format: cell-based
Experimental: as §1

[1] = fibroblast culture medium, H2O2 500 μM 24 hours, then test material (31, 32: 100 μg/ml) 48 hours, ELISA

- Number of examinees who exhibited ±, +, or ++ reactivity, 6th (skin; 1 wt. %, line 2 of 3 (+)): 0 number
- Number of examinees who exhibited ±, +, or ++ reactivity, 6th (skin; 1 wt. %, line 3 of 3 (++)): 0 number
- Number of examinees who exhibited ±, +, or ++ reactivity, 7th (skin; 1 wt. %, line 1 of 3 (±)): 0 number
- Number of examinees who exhibited ±, +, or ++ reactivity, 7th (skin; 1 wt. %, line 2 of 3 (+)): 0 number
- Number of examinees who exhibited ±, +, or ++ reactivity, 7th (skin; 1 wt. %, line 3 of 3 (++)): 0 number
- Number of examinees who exhibited ±, +, or ++ reactivity, 8th (skin; 1 wt. %, line 1 of 3 (±)): 0 number
- Number of examinees who exhibited ±, +, or ++ reactivity, 8th (skin; 1 wt. %, line 2 of 3 (+)): 0 number
- Number of examinees who exhibited ±, +, or ++ reactivity, 8th (skin; 1 wt. %, line 3 of 3 (++)): 0 number
- average reactivity (skin; 1 wt. %): 0
- Number of examinees who exhibited ±, +, or ++ reactivity, 9th (skin; 1 wt. %, line 1 of 3 (±)): 0 number
- Number of examinees who exhibited ±, +, or ++ reactivity, 9th (skin; 1 wt. %, line 2 of 3 (+)): 0 number
- Number of examinees who exhibited ±, +, or ++ reactivity, 9th (skin; 1 wt. %, line 3 of 3 (++)): 0 number
- Number of examinees who exhibited ±, +, or ++ reactivity, 1st (skin; 3 wt. %, line 1 of 3 (±)): 0 number
- Number of examinees who exhibited ±, +, or ++ reactivity, 1st (skin; 3 wt. %, line 2 of 3 (+)): 0 number
- Number of examinees who exhibited ±, +, or ++ reactivity, 1st (skin; 3 wt. %, line 3 of 3 (++)): 0 number
- Number of examinees who exhibited ±, +, or ++ reactivity, 2nd (skin; 3 wt. %, line 1 of 3 (±)): 0 number
- Number of examinees who exhibited ±, +, or ++ reactivity, 2nd (skin; 3 wt. %, line 2 of 3 (+)): 0 number
- Number of examinees who exhibited ±, +, or ++ reactivity, 2nd (skin; 3 wt. %, line 3 of 3 (++)): 0 number
- Number of examinees who exhibited ±, +, or ++ reactivity, 3rd (skin; 3 wt. %, line 1 of 3 (±)): 0 number
- Number of examinees who exhibited ±, +, or ++ reactivity, 3rd (skin; 3 wt. %, line 2 of 3 (+)): 0 number
- Number of examinees who exhibited ±, +, or ++ reactivity, 3rd (skin; 3 wt. %, line 3 of 3 (++)): 0 number
- Number of examinees who exhibited ±, +, or ++ reactivity, 4th (skin; 3 wt. %, line 1 of 3 (±)): 0 number
- Number of examinees who exhibited ±, +, or ++ reactivity, 4th (skin; 3 wt. %, line 2 of 3 (+)): 0 number
- Number of examinees who exhibited ±, +, or ++ reactivity, 4th (skin; 3 wt. %, line 3 of 3 (++)): 0 number
- Number of examinees who exhibited ±, +, or ++ reactivity, 5th (skin; 3 wt. %, line 1 of 3 (±)): 0 number
- Number of examinees who exhibited ±, +, or ++ reactivity, 5th (skin; 3 wt. %, line 2 of 3 (+)): 0 number
- Number of examinees who exhibited ±, +, or ++ reactivity, 5th (skin; 3 wt. %, line 3 of 3 (++)): 0 number
- Number of examinees who exhibited ±, +, or ++ reactivity, 6th (skin; 3 wt. %, line 1 of 3 (±)): 0 number
- Number of examinees who exhibited ±, +, or ++ reactivity, 6th (skin; 3 wt. %, line 2 of 3 (+)): 0 number
- Number of examinees who exhibited ±, +, or ++ reactivity, 6th (skin; 3 wt. %, line 3 of 3 (++)): 0 number
- Number of examinees who exhibited ±, +, or ++ reactivity, 7th (skin; 3 wt. %, line 1 of 3 (±)): 0 number
- Number of examinees who exhibited ±, +, or ++ reactivity, 7th (skin; 3 wt. %, line 2 of 3 (+)): 0 number
- Number of examinees who exhibited ±, +, or ++ reactivity, 7th (skin; 3 wt. %, line 3 of 3 (++)): 0 number
- Number of examinees who exhibited ±, +, or ++ reactivity, 8th (skin; 3 wt. %, line 1 of 3 (±)): 0 number
- Number of examinees who exhibited ±, +, or ++ reactivity, 8th (skin; 3 wt. %, line 2 of 3 (+)): 0 number
- Number of examinees who exhibited ±, +, or ++ reactivity, 8th (skin; 3 wt. %, line 3 of 3 (++)): 0 number
- average reactivity (skin; 3 wt. %): 0
- Number of examinees who exhibited ±, +, or ++ reactivity, 9th (skin; 3 wt. %, line 1 of 3 (±)): 0 number
- Number of examinees who exhibited ±, +, or ++ reactivity, 9th (skin; 3 wt. %, line 2 of 3 (+)): 0 number
- Number of examinees who exhibited ±, +, or ++ reactivity, 9th (skin; 3 wt. %, line 3 of 3 (++)): 0 number
- skin reactivity (ICDRG criteria) (skin; within the range of contents 0.5 wt. %, 1 wt. %, 3 wt. %): −
SMILES: C[C@@H]1O[C@@H](OC[C@H]2O[C@@H](Oc3c(-c4ccc(O)c(O)c4)oc4cc(O)cc(O)c4c3=O)[C@H](O)[C@@H](OC(=O)/C=C/c3ccc(O)cc3)[C@@H]2O)[C@H](O)[C@H](O[C@@H]2O[C@H](CO)[C@@H](O)[C@H](O)[C@H]2O)[C@H]1O [New Material 31, quercetin3-O-[3-O″-(E)-p-coumaroyl][β-D-glucopyranosyl-(1→3)-O-α-L-rhamnopyranosyl-(1→6)-O-β-D-glucopyranoside]]
- inhibition at 100 µg/mL (IL-8 (Interleukin 8); Fibroblast, 100 μg/ml, {1−(test sample−control)/(H2O2−control)}×100, read-out: Inhibition effect according to Equation 1, IL-8): 61.1%
- IL-8 (IL-8 (Interleukin 8); [1]): 235 pg/mL
- inhibition at 100 µg/mL (PGE2 (Prostaglandin E2); Fibroblast, 100 μg/ml, {1−(test sample−control)/(H2O2−control)}×100, read-out: Inhibition effect according to Equation 1, PGE2): 51.7%
- PGE2 (PGE2 (Prostaglandin E2); [1]): 275 pg/mL

Source: patent US11197878B2, “Anti-inflammatory composition including novel quercetin-based compound” (AMOREPACIFIC CORPORATION, priority 2017, dated 2021)
